Results published in ChEMBL document CHEMBL1201862, “PubChem BioAssay data set” (2004).
Active and inactive are the calls of the source.

Legend:
[1] = HEK293T cytotoxicity, dose response, cytotoxicity control for miR-122 modulator project, cell-based, inhibitor set, cherry-pick, set 2 (AID 720697); format: functional
[2] = cytotoxicity in OVCAR8 ovarian cancer cells, dose response, PAX8 project, cell-based, plate reader, dry powder samples (AID 743197); format: functional; conditions: OVCAR-8
[3] = NIH:OVCAR-3 ovarian cancer cell cytotoxicity, dose response, PAX8 inhibitor project, plate reader, dry powder samples (AID 743044); format: functional, cell-based
[4] = IGROV1 ovarian cancer cell cytotoxicity, dose response, PAX8 inhibitor project, plate reader, dry powder samples (AID 743043); format: functional, cell-based; conditions: IGROV-1
Paired box protein Pax-8 = Paired box protein Pax-8 (Homo sapiens, UniProt Q06710); assay: inhibitors of PAX8-driven TPO luciferase reporter, dose response, RMG-I cells, cherry-pick (AID 687027); format: functional, cell-based;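 note: luciferase reporter driven by Pax8 target thyroperoxidase promoter measured by SteadyGlo luminescence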
Major prion protein = Major prion protein (Homo sapiens, UniProt P04156); format: functional, cell-based
A549 = assay: A549 cell toxicity, dose response, cytotoxicity control, plate reader, cherry-pick samples (AID 687028); format: functional, cell-based; conditions: Homo sapiens
[5] = inhibitors of non-replicating M. tuberculosis, dose response, luciferase, dry powder (AID 651620); format: functional; conditions: Mycobacterium tuberculosis
[6] = cytotoxicity in HeLa cells, dose response, cytotoxicity control, cell-based, plate reader, dry powder (AID 651946); format: functional
[7] = inhibitors of non-replicating M. tuberculosis, dose response, luciferase, dry powder (AID 651619); format: functional; conditions: Mycobacterium tuberculosis
[8] = growth inhibition of replicating M. tuberculosis, dose response, counter-screen, dry powder, IC90 (AID 651617); format: functional; conditions: Mycobacterium tuberculosis
[9] = HIV Env cell-cell fusion inhibitors, dose response, HIV entry, plate reader, dry powder (AID 687023); format: functional, cell-based
Albumin = Albumin (Bos taurus, UniProt P02769); assay: Counterscreen for inhibitors of T-cell receptor (TCR)-CD3 interaction: Fluorescence-based biochemical high throughput dose response assay to identify inhibitors of T-cell receptor (TCR)-CD3 interaction using a TAMRA-labeled BSA probe.; format: functional
[10] = C. albicans growth with fluconazole, confirmation, fluorescence, retest (AID 2467); format: functional, cell-based
[11] = NIH-3T3 fibroblast cytotoxicity, dose response, cytotoxicity control, cell-based, fluorescence, Alamar Blue, secondary assay (AID 2327); format: functional;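 note: NIH-3T3 mouse fibroblasts cultured with fluconazole at 8 µg/mL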
[12] = HEK293 cell cytotoxicity, dose response, cytotoxicity control, dry powder samples (AID 720567); format: functional, cell-based
H4 = assay: Luminescence Cell-Based Dose Response HTS to Identify Activators of 5'UTR Stem-Loop Driven Prion Protein mRNA Translation in H4 Neuroglioblastoma Cells. [Related pubchem assays: 1829 (Project Summary), 1814 (Primary HTS)]; format: functional; conditions: Homo sapiens
[13] = Luminescence Cell-Based Dose Confirmation HTS to Identify Activators of 5'UTR Stem-Loop Driven Alpha-Synuclein mRNA Translation in H4 Neuroglioblastoma Cells. [Related pubchem assays: 1829 (Project Summary), 1814 (Primary HTS)]; format: functional
[14] = Luminescence Cell-Based Dose Response HTS to Identify Activators of Luciferase Translation or Activity in H4 […] Cells. [Related pubchem assays: 1829 (Project Summary), 1814 (Primary HTS)]; format: functional
Beta-lactamase [15] = target: Beta-lactamase (Salmonella choleraesuis (strain SC-B67), UniProt Q5J463); assay: Epi-absorbance-based counterscreen for selective VIM-2 inhibitors: dose response biochemical high throughput screening assay to identify inhibitors of TEM-1 serine-beta-lactamase.
[16] = target: T1, Corticotropin-releasing factor receptor 2/Corticotropin-releasing factor-binding protein (Homo sapiens, UniProt P24387+Q13324); assay: Dose Response confirmation of uHTS hits for small molecule antagonists of the CRF-binding protein and CRF-R2 receptor complex.; format: functional; conditions: read-out: IC50_Mean
T1 sequence (Q13324 whole entry): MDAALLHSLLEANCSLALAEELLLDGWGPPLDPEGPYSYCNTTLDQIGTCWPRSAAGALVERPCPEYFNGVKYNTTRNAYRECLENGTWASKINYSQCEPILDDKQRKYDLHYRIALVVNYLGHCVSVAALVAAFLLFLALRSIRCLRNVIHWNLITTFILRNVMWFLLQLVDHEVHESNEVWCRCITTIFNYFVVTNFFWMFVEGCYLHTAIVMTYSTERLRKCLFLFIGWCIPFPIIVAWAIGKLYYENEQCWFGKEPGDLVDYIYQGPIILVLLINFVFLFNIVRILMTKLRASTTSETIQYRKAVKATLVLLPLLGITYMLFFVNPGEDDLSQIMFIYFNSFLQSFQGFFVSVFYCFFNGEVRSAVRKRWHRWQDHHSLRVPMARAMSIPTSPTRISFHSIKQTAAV
T1 sequence (P24387 whole entry): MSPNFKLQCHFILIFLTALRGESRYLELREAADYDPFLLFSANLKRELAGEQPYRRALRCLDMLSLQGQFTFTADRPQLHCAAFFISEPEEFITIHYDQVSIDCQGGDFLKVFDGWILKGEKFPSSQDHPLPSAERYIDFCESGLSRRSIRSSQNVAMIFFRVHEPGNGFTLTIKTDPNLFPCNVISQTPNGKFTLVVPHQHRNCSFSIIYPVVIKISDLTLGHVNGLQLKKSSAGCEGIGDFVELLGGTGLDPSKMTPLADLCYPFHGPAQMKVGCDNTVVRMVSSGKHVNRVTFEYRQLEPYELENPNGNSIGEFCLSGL

Beta-lactamase [17] = target: T2, Beta-lactamase (Pseudomonas aeruginosa, UniProt Q79MP6); assay: IMP-1 metallo-beta-lactamase inhibitors, dose response, selectivity assay for VIM-2 inhibitor project, biochemical, epi-absorbance (AID 1920)
Beta-lactamase [18] = target: T2, Beta-lactamase; assay: […] counterscreen for selective VIM-2 inhibitors: dose response biochemical high throughput screening assay to identify inhibitors of IMP-1 metallo-beta-lactamase.
[19] = target: T1, Corticotropin-releasing factor receptor 2/Corticotropin-releasing factor-binding protein; assay: activators of CRF receptor 2 with binding protein – uHTS hits, confirmation (AID 602473); format: functional; conditions: read-out: EC50_Mean
[20] = CRF-BP/CRF-R2 complex antagonists, dose response, cell-based, uHTS hits, 384-well (AID 651639); format: functional, Homo sapiens; conditions: read-out: IC50_Mean
[21] = A2780 ovarian cancer cell cytotoxicity, dose response, cytotoxicity control, plate reader, dry powder samples (AID 743046); format: functional, cell-based
[22] = IOSE-T80 ovarian epithelial cell cytotoxicity, dose response, cytotoxicity control for PAX8 inhibitor project, plate reader, dry powder samples (AID 743045); format: functional, cell-based
[23] = target: Heat shock protein HSP 90-alpha (Homo sapiens, UniProt P07900); format: functional, organism-based
[24] = HeLa cell cytotoxicity, dose response, cytotoxicity control, CellTiter-Glo luminescence, dry powder, set 2 (AID 720593); format: functional, cell-based
[25] = HEK293T cell cytotoxicity, dose response, cytotoxicity control, CellTiter-Glo luminescence, dry powder, set 2 (AID 720595); format: functional, cell-based; conditions: HEK293
[26] = inhibitors of fibronectin matrix deposition, dose response, AH1F cells, Alexa488-FN fluorescence, cherry-picks (AID 1035475); format: functional, cell-based
[27] = HEK293 cell cytotoxicity, dose response, cytotoxicity control, cherry-picks, set 5 (AID 1053117); format: functional, cell-based
[28] = HepG2 cell cytotoxicity, dose response, cytotoxicity control, cherry-picks, set 5 (AID 1053118); format: functional, cell-based
Phospholipase A2 = Phospholipase A2 (Homo sapiens, UniProt P04054); format: functional;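 note: confirmatory dose-response counterscreen on phospholipase A2, testing hits that came from an ultra-high-throughput screen for ATG4B inhibitors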
[29] = target: Fructose-bisphosphate aldolase (Mycobacterium tuberculosis, UniProt P9WQA3); assay: Fluorescence-based biochemical high throughput dose response assay for inhibitors of the fructose-bisphosphate aldolase (FBA) of M. tuberculosis.; format: functional
[30] = Luminescence Cell-Based Dose Confirmation to Identify Activators of 5'UTR Stem-Loop Driven Alpha-Synuclein mRNA Translation in H4 Neuroglioblastoma Cells. [Related pubchem assays: 1829 (Project Summary), 1814 (Primary HTS)]; format: functional
[31] = Luminescence Cell-Based Dose Response to Identify Activators of Luciferase Translation or Activity in H4-C Neuroglioblastoma Cells. [Related pubchem assays: 1829 (Project Summary), 1814 (Primary HTS)]; format: functional
[32] = Luminescence Cell-Based Dose Response to Identify Activators of 5'UTR Stem-Loop Driven Prion Protein mRNA Translation in H4-C Neuroglioblastoma Cells. [Related pubchem assays: 1829 (Project Summary), 1814 (Primary HTS)]; format: functional
Protein skinhead-1 = target: T3, Protein skinhead-1 (Caenorhabditis elegans, UniProt P34707); format: functional
T3 sequence (P34707 whole entry): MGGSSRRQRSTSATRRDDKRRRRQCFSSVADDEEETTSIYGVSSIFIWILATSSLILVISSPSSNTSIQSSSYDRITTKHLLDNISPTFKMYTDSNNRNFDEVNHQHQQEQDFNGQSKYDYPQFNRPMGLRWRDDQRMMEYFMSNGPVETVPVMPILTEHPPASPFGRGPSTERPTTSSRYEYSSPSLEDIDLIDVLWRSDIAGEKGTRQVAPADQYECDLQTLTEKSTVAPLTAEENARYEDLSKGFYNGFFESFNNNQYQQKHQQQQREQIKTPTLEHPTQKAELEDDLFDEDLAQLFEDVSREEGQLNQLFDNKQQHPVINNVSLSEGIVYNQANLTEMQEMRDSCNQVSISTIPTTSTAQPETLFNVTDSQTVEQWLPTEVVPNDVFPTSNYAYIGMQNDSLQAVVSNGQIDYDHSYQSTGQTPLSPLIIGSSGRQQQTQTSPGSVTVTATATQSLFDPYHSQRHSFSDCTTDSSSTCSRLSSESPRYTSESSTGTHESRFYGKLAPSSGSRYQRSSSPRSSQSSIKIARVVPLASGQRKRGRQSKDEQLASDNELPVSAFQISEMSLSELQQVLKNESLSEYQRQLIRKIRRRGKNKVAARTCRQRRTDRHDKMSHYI

Cysteine protease ATG4B = target: T4, Cysteine protease ATG4B (Homo sapiens, UniProt Q9Y4P1); format: functional;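 note: Fluorescence-based dose-response confirmation assay measuring inhibition of ATG4B activity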
T4 sequence (Q9Y4P1 whole entry): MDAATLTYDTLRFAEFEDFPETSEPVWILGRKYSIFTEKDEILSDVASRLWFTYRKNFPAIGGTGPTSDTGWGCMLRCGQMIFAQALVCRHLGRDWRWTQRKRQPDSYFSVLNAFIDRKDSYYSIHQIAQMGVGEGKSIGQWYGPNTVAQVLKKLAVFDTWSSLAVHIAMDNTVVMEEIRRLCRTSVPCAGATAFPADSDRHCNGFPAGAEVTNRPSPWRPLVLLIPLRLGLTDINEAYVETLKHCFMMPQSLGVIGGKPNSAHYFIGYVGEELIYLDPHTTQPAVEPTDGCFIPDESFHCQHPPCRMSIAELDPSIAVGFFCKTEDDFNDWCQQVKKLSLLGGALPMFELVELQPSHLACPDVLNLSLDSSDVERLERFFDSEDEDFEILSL

CCCNC(=O)Nc1ccc2c(c1)C(=O)N(C)[C@@H]1CC[C@@H](CC(=O)NCC3CCCCC3)O[C@@H]1CO2
AC50 [1]: 0.456 µM (active)

C[C@H]1CCCCO[C@H](CN(C)Cc2ccc(C(F)(F)F)cc2)[C@@H](C)CN([C@@H](C)CO)C(=O)c2cc(NC(=O)Cc3ccccc3)ccc2O1
AC50 [2]: 53 µM (active) | AC50 [3]: 29.7 µM (active) | AC50 [4]: 31.9 µM (active) | AC50 (Paired box protein Pax-8): 7.6 µM (active)

Cc1cccc2c(=O)c(-c3ccc4c(c3)OCO4)c(NC(=O)c3ccco3)oc12
IC50 (cells): > 138 µM (inactive) | IC50 (Major prion protein): 9.57 µM (active)

C[C@]1(C(=O)NCCc2c[nH]c3ccccc23)C=C[C@@H](Cc2ccccc2)N1C(=O)c1ccccc1
AC50 (A549): 20.6 µM (active)

[O-][S+](Cc1ccccc1)c1nnc(-c2ccccc2)o1 (stereo not given)
IC90 [5]: 1 µM (active) | AC50 [6]: 32.2 µM (active) | IC90 [7]: 1 µM (active) | IC90 [8]: 31 µM (active)

CCOc1ccc(OCC)c(S(=O)(=O)NCc2ccncc2)c1
AC50 [9]: > 70 µM (inactive)

COc1ccc(NC(=O)NNC(=O)c2cc3ccccc3cc2O)cc1
IC50 (Albumin): > 94.1 µM (inactive) | EC50 [10]: > 38 µM (not active) | EC50 [11]: > 160 µM (inactive)

COC(=O)c1cn(C(=O)c2ccc(OC)cc2)c2ccccc12
AC50 [12]: > 30 µM (inactive) | EC50 (H4): > 120 µM (not active) | EC50 [13]: > 120 µM (not active) | EC50 [14]: 9.72 µM (active)

Oc1nc(SCc2nnc(S)n2-c2ccccc2)nc2sc3c(c12)CCC3
IC50 (Beta-lactamase [15]): > 59.6 µM (inactive) | IC50 [16]: 13.5 µM (active) | IC50 (Beta-lactamase [17]): > 59.6 µM (inactive) | IC50 (Beta-lactamase [18]): > 59.6 µM (inactive) | EC50 [19]: > 53 µM (inactive) | IC50 [20]: 6.63 µM (active)

COc1ccc(-c2ccc3c(c2)[C@@H]2[C@@H](CCN2C(=O)NC2CCCCC2)[C@H](CO)N3C)cc1
AC50 [21]: 32.8 µM (active) | AC50 [22]: 46.8 µM (active) | AC50 [2]: > 60 µM (inactive) | AC50 [3]: 49.5 µM (active) | AC50 (Paired box protein Pax-8): 10.7 µM (active)

O=C(CSc1ccc(-c2ccccn2)nn1)Nc1ccccc1
AC50 [23]: 35.3 µM (active) | AC50 [24]: > 52 µM (inactive) | AC50 [25]: 25.8 µM (active)

C[C@H](CO)N1C[C@H](C)[C@H](CN(C)Cc2ccc(-c3ccccc3)cc2)Oc2ccc(NC(=O)CCCN(C)C)cc2C1=O
AC50 [26]: 30.8 µM (active) | AC50 [27]: 12.7 µM (active) | AC50 [28]: 11.8 µM (active)

COc1ccc2c(c1OC)C(=O)OC2Nc1nc(-c2ccc(-c3ccccc3)cc2)cs1 (stereo not given)
IC50 (Phospholipase A2): 17.1 µM (active) | IC50 [29]: 6.08 µM (active) | EC50 [30]: 0.396 µM (active) | EC50 [31]: 0.284 µM (active) | EC50 [32]: 0.254 µM (active) | IC50 (Protein skinhead-1): 18.7 µM (active) | EC50 [14]: < 0.1 µM (active) | IC50 (Cysteine protease ATG4B): 8.28 µM (active)
